The record followed here is patent EP1142883A1, “NOVEL HETEROCYCLIC COMPOUNDS AND DRUG COMPOSITIONS CONTAINING THE SAME” (Asahi Kasei Kabushiki Kaisha, priority 1998, dated 2000).

The target in one series is T1, human β3 (Homo sapiens, UniProt P13945).
T1 construct: the full length human β3 gene was obtained from a human genomic library; expressed in transfected cells; host or cells: CHO (Chinese hamster ovary) cells, pcDNA3 vector, geneticin selection
Description: Human β3-agonist activities: cAMP in CHO cells transfected with human β3 gene. As to conditions: for Emax: CHO, read-out: *Intrinsic Activity (%); for EC50 / *Intrinsic Activity (%): cAMP, 30 minutes, CHO cells expressing human β3; for EC50: read-out: ED50 (the source's name); for *Intrinsic Activity (%): relative value as compared with isoproterenol. In kind it is cell-based. The procedure: Human β3-agonist activities were determined using CHO (Chinese hamster ovary) cells transfected with pcDNA3 (mfd. by Invitrogen) to which human β3 gene had been inserted. Human β3 fragment was first obtained from human adipose tissue cDNA (mfd. by Clonetech) by PCR using the primer of β3 (Krief, et al., J. Clin. Invest., 91, pp. 344-349 (1993)). The human β3 fragment obtained was then used as a probe and then the full length human β3 gene was obtained from a human genomic library (mfd. by Clonetech).
The above cells were cultured in a Ham F-12 medium supplemented with 10% fetal bovine serum (mfd. by Dainippon Pharmaceutical), 400 µg/mL geneticin (Gibco BRL), 100 U/mL penicillin and 100 µg/mL streptomycin. After placing these cells (5×10^5) into a 6-well plate and culturing them for 24 hours, they were allowed to stand on a serum-free Ham F-12 medium for 2 hours. The compound was first dissolved in DMSO, repeatedly diluted by ten times with Ham F-12 supplemented with 1 mM isobutylmethylxanthine and 1 mM ascorbic acid to a final concentration of 10^-5 to 10^-12 M, and then added to the cells.
After the cells were cultured for 30 minutes, the medium was removed followed by addition of 0.5 mL of 1 N NaOH. The medium was allowed to stand for 20 minutes and then 0.5 mL of 1 N acetic acid was added to the medium. The medium was stirred and centrifuged followed by quantitating cAMP with cAMP EIA kit (mfd. by Cayman). […]

A further series concerns Caco-2 cell. Description: Permeability through human small intestine epithelium (Caco-2 cell layer). As to conditions: Caco-2 layer, cup side pH 6.5, base side pH 7.4, drug 20-40 µM, 37°C. The source says:
(§1) Human colon adenocarcinoma, Caco-2 cell, when cultured, spontaneously differenciates to form a cell layer consisting of a polar single layer having microvillus similar to small intestine epithelial cell. The presence of tight junction has been found out in the membrane formed. Therefore, the above cell layer can be used as a model system of human small intestine epithelium and is recognized as the simplest system to evaluate the permeability through a membrane of a drug orally administered to human. The specific experimental method is as follows.
(§2) Before the cells reached confluence, DMEM was removed and the flask was washed with PBS (phosphate buffered saline, pH 7.2, Ca, Mg free (Gibco BRL)) and treated with trypsin/EDTA to peel off the cells, which were then harvested.
(§3) After centrifugation (1000 rpm, 5 min), the cells were resuspended in DMEM at 4.4×10^5 cells/mL. The cells were seeded into Transwell cell culture chamber (mfd. by Costar) having a collagen-coated membrane filter (3 µm pores, 0.33 cm^2 growth area) at 0.15 mL/well (2×10^5 cells/cm^2, 24 well). After seeding, DMEM was renewed every other day. After culturing for 18 to 25 days, a membrane formed having a membrane resistance of at least 200 Ω · cm^2 was applied to the drug permeation experiment.
(§4) DMEMs in the cup side and base side of Transwell were removed and then replaced with a buffer for the permeation experiment (HBSS (Hanks Balanced Salt Solution, Gibco BRL), 10 mM Mes, pH 6.5 (mfd. by DOJINDO) or 10 mM Hepes, pH 7.4 (mfd. by DOJINDO) containing 25 mM glucose and 0.05% Tween 80). The cup side buffer (0.15 mL) was maintained at pH 6.5 and the base side buffer (0.8 mL) was maintained at pH 7.4. After pre-incubation at 37°C for 10 minutes, the cup side buffer was replaced with the buffer (pH 6.5) containing a drug (20-40 µM). With additionally incubating at 37°C, 80 µL aliquot of the base side buffer was sampled with the passage of time to quantitate the amount of the drug permeated into the base side buffer.
(§5) The amount of the drug contained in the base side buffer sampled with the passage of time was divided by the time to calculate the amount of the drug permeated per unit time (sec). It was then divided by the concentration of the drug added and the surface area of the membrane to calculate the permeability coefficient (Papp). That is, the permeability coefficient (Papp) is obtained by the following calculating formula.
(§6) In this connection, the quantitation of the drug was carried out with LC/MS or HPLC (detecting with fluorescence). The conditions of LC/MS and HPLC are as follows.
(In general: Caco-2 cells form a polarised layer with tight junctions and transporters.)

Assay in series [1]: as above
As to conditions: human, Caco-2.
Text: as §1, §2, §3, §4, §5, §6

T1 sequence (P13945 whole entry): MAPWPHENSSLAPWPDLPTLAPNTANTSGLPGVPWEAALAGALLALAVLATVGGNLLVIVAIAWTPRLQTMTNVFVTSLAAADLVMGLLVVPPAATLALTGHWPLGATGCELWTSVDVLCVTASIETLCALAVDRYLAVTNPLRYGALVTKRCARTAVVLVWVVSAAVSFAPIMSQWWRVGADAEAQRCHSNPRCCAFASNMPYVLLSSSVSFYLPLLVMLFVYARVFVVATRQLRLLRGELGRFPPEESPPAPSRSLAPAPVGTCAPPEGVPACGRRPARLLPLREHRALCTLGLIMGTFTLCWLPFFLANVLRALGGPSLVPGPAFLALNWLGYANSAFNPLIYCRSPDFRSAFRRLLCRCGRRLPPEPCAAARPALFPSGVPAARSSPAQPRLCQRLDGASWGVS

In the case of `CN(C)S(=O)(=O)n1c(=S)oc2ccc([C@@H](O)CNCCOc3ccc4c(c3)[nH]c3ccccc34)cc21` [Example 8, (R)-3-[(dimethylamino)sulfonyl]-5-[2-[2-(9H-carbazol-2-yloxy)ethylamino]-1-hydroxyethyl]-3-hydrobenzoxazol-2-thione], at human β3, the Emax is 99% and the EC50 was 610 nM.
As for `CN(C)S(=O)(=O)n1c(=O)oc2ccc([C@@H](O)CNCCOc3ccc4c(c3)[nH]c3ccccc34)cc21` [Example 7, (R)-3-[(dimethylamino)sulfonyl]-5-[2-[2-(9H-carbazol-2-yloxy)ethylamino]-1-hydroxyethyl]-3-hydrobenzoxazol-2-one], on human β3, the EC50 was 100 nM and the “*Intrinsic Activity (%)” value is reported as 76%. In addition, the “Permeability Coefficient Papp × 10^-6 (cm/s)” value in the series on Caco-2 cell is 0.78 × 10^-6 cm/s.
As usually defined, the Papp A→B is the apparent permeability from the apical to the basolateral side of a cell layer. Read a high Papp A→B as ready permeation. Take `CS(=O)(=O)N1CCCOc2ccc([C@@H](O)CNCCOc3ccc4c(c3)[nH]c3ccccc34)cc21` [Example 4, (R)-7-[2-[2-(9H-carbazol-2-yloxy)ethylamino]-1-hydroxyethyl]-5-(methylsulfonyl)-2H,3H,4H-benzo[b]1,4-oxazepine]: at human β3, the Emax was 107% and the EC50 was found to be 620 nM. For the same compound, in series [1], the Papp A→B is 1.93 ×10⁻⁶ cm/s.
Consider `CC(C)NCC(O)c1ccc(O)c(O)c1` (stereo not drawn) [Isoproterenol, reference compound], for which the “*Intrinsic Activity (%)” value at human β3 turned out to be 100%.
On to `CS(=O)(=O)N1CCOc2ccc([C@@H](O)CNCCOc3ccc4c(c3)[nH]c3ccccc34)cc21` [Example 2, (R)-6-[2-[2-(9H-carbazol-2-yloxy)ethylamino]-1-hydroxyethyl]-4-(methylsulfonyl)-2,3-dihydro-1,4-benzoxazine], for which, at human β3, the Emax turned out to be 69% and the EC50 stood at 12 nM. The apparent permeability from apical to basolateral (Papp A→B) in series [1] was determined as 0.93 ×10⁻⁶ cm/s.
`O=c1[nH]c2cc([C@@H](O)CNCCOc3ccc4c(c3)[nH]c3ccccc34)ccc2o1` [Example 10, (R)-5-[2-[2-(9H-carbazol-2-yloxy)ethylamino]-1-hydroxyethyl]-3-hydrobenzoxazol-2-one]: on human β3, the EC50 is 170 nM and the “*Intrinsic Activity (%)” value was found to be 99%. The “Permeability Coefficient Papp × 10^-6 (cm/s)” value with Caco-2 cell is 0.54 × 10^-6 cm/s.
On to `CS(=O)(=O)N1COc2ccc([C@@H](O)CNCCOc3ccc4c(c3)[nH]c3ccccc34)cc21` [Example 3, (R)-5-[2-[2-(9H-carbazol-2-yloxy)ethylamino]-1-hydroxyethyl]-3-(methylsulfonyl)-2,3-dihydrobenzoxazole], for which, on human β3, the Emax is 70% and the EC50 worked out at 65 nM. In series [1], the Papp A→B came to 1.03 ×10⁻⁶ cm/s.
